Converted amounts (≈) assume the structure as drawn. Like-named read-outs stand apart in the source and are kept apart here.
Experiments:
C. albicans CaCi-2 [1] = test: CaCi-2 growth inhibition in the presence of 8 μg/ml fluconazole (Alamar Blue); assay type: cell-based, Candida albicans; settings: in the presence of fluconazole; read-out: Target Potency (μM) Mean ± S.E.M CaCi-2^a IC50
Description: Fluconazole was obtained from Sequoia Research Products, Ltd. and prepared in a 2 mg/ml stock solution in phosphate buffered saline (PBS). […] PBS (Catalog No. 21-040-CV) without calcium and magnesium was obtained from Cellgro. Penicillin/Streptomycin (Pen/Strep) was obtained from Gibco and prepared 100× in PBS.
RPMI medium (1×) was prepared by dissolving 10.4 g powdered medium in 800 ml water. A buffer of 34.52 g MOPS was added. While stirring, pH was adjusted to 7.0 with 10 N NaOH. Next, 10 ml uridine solution and 50 ml glucose solution were added. The final volume was adjusted to 1000 ml, and filter sterilized.
The following yeast strains were used in this study: C. albicans CaCi-2. Fungal inoculum was prepared as follows: 500 μl of strain was inoculated from cryopreserved stock into a 250-ml shaker flask containing 30 ml growth medium and shaken overnight at 30° C. The optical density (OD 600) of 1 ml fungal culture in a cuvette was read using a standard optical density reader (Eppendorf BioPhotometer Plus), with growth medium as a background blank. The desired volume of fungal inoculums was diluted to desired volume of fungal inoculums according to the following formula: (1/OD measured)×(Desired Final Volume of Inoculum)×0.3=Volume of fungal culture (μl) to add to desired volume of growth medium. When added to media in wells, this yields a calculated starting OD of the fungal inoculum of 0.00015.
Fluconazole stock solution was added to the fungal inoculum to achieve 8 μg/ml. Pen/Strep was added to the media to a 1% concentration (v/v). A Thermo Combi nL was used to dispense 20 μl/well of assay media into all wells. Geldanamycin was dispensed in positive control wells using Thermo Combi nL for a final concentration of 3 μM. Then, 100 nl of test compound was pinned from compound plates into assay plates using a CyBi-Well pin tool. A further 20 μl/well of culture was dispensed into the assay media in all wells. The plates were incubated in a humidified (90% humidity) Liconic incubator at 37° C. without agitation for 48 hours. Alamar Blue was diluted 1:40 in Ca/Mg-free PBS. To all plates, […] of the diluted Alamar Blue was added to the plates to a final dilution factor of 1:200. The plates were incubated for an additional 2 hours. Then, Relative Fluorescence Intensity (RFU) of each well was read on standard plate reader as a measure of relative fungal growth.

C. albicans CaCi-2 [2] = test: Secondary single-agent (no-fluconazole) activity assay; assay type: cell-based, Candida albicans; settings: read-out: Target Potency (μM) Mean ± S.E.M CaCi-2^b IC50
Outline: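 C. albicans CaCi-2 in RPMI synthetic defined medium with 1% Pen/Strep, starting OD600 0.00015, exposed to compound alone (no fluconazole) for 48 h at 37 °C without agitation. Growth read as Alamar Blue fluorescence (1:200 final) after 2 h at room temperature.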

C. albicans CaCi-8 = test: microbe, parasite or virus in culture; assay type: cell-based, Candida albicans; settings: in the presence of fluconazole; read-out: Target Potency (μM) Mean ± S.E.M CaCi-8^a IC50
Outline: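 Hits tested for chemosensitization of the fluconazole-resistant CaCi-8 strain, for inherent antifungal activity without fluconazole, and for mammalian fibroblast toxicity by fluorescence reporter. Geldanamycin plus fluconazole served as positive control; a Saccharomyces assay assigned mechanism to Hsp90, calcineurin or other pathways.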

[3] = test system: NIH-3T3 mammalian fibroblasts; test: Counterscreen mammalian cell toxicity assay (fibroblast toxicity); assay type: cell-based, murine; settings: for ** CaCi-2 to anti-target fold selectivity: fibroblast IC50 over CaCi-2 IC50 with fluconazole; for IC50: footnote: in the absence of fluconazole, read-out: Anti-target Potency (μM) Mean ± S.E.M Fibroblasts^b IC50
Plasma stability = settings: % remaining in human plasma after a 5-hour incubation
Plasma protein binding = settings: for Plasma Protein Binding: % bound in human plasma
PBS solubility = settings: PBS; for solubility: aqueous buffer
yeast = biological target: T1, yeast (Saccharomyces cerevisiae, UniProt P00163); test: IC50 values and selectivity of Table 10A (target yeast, anti-target human cytochrome); assay type: biochemical
T1 construct: Mitochondrial membranes were prepared from yeast; endogenous in cells; host or cells: yeast (mitochondrial membranes)
Description: All measurements were performed in triplicate.

[4] = Candida albicans, CACI2, in the absence of fluconazole

COC(=O)Cn1nc(-c2ccccc2)c2ccc(Cl)cc21 [Compound 49835818]
IC50 (C. albicans CaCi-2 [1]): 3.79 µM | IC50 (C. albicans CaCi-2 [2]; in the absence of fluconazole): > 26 µM | IC50 (C. albicans CaCi-8): 8.57 µM | ** CaCi-2 to anti-target fold selectivity [3]: 7.9 | IC50 [3]: 29.9 µM | Plasma Stability (Plasma stability): 90% | Plasma Protein Binding (Plasma protein binding): 18%

COC(=O)Cn1nc(-c2cccc(OC)c2)c2ccccc21 [Compound 49835877]
IC50 (C. albicans CaCi-2 [1]): 0.44 µM | IC50 (C. albicans CaCi-2 [2]; in the absence of fluconazole): > 26 µM | IC50 (C. albicans CaCi-8): 1.21 µM | IC50 [3]: > 26 µM | Plasma Stability (Plasma stability): 2.6% | Plasma Protein Binding (Plasma protein binding): 95%

CNC(=O)Cn1nc(-c2ccccc2)c2ccccc21 [Compound 13330955]
IC50 (C. albicans CaCi-2 [2]; in the absence of fluconazole): > 26 µM | IC50 (C. albicans CaCi-8): > 26 µM | PBS Solubility (PBS solubility): < 18.5 µM | Plasma Stability (Plasma stability): > 99% | Plasma Protein Binding (Plasma protein binding): 93%

COC(=O)[C@@H](C)n1nc(-c2ccccc2)c2ccccc21.COC(=O)[C@H](C)n1nc(-c2ccccc2)c2ccccc21 [Compound 49835813]
IC50 (C. albicans CaCi-2 [1]): 6.56 ± 0.79 µM | IC50 (C. albicans CaCi-2 [2]; in the absence of fluconazole): > 26 µM | IC50 (C. albicans CaCi-8): 15.8 µM | PBS Solubility (PBS solubility): < 1.0 µM | Plasma Stability (Plasma stability): 61% | Plasma Protein Binding (Plasma protein binding): > 99%

COC(=O)Cn1nc(-c2ccccc2OC)c2ccccc21 [Compound 49835850]
IC50 (C. albicans CaCi-2 [1]): 6.21 µM | IC50 (C. albicans CaCi-2 [2]; in the absence of fluconazole): > 26 µM | IC50 (C. albicans CaCi-8): 10.2 µM | ** CaCi-2 to anti-target fold selectivity [3]: 0.17 | IC50 [3]: 1.54 µM | Plasma Stability (Plasma stability): < 1.0% | Plasma Protein Binding (Plasma protein binding): 92%

COC(=O)Cn1nc(I)c2ccccc21 [Compound 49835832]
IC50 (C. albicans CaCi-8): 18.8 µM | IC50 [3]: 0.53 µM | PBS Solubility (PBS solubility): 143.5 µM | Plasma Stability (Plasma stability): 1.3% | Plasma Protein Binding (Plasma protein binding): 98%

COC(=O)Cn1nc(-c2cncnc2)c2ccccc21 [Compound 49835858]
IC50 (C. albicans CaCi-2 [2]; [4]): > 26 µM | IC50 ([3]; Mus musculus, NIH3T3): > 6 µM | solubility (PBS solubility): 155 µM (≈ 41.5 µg/mL) | Plasma Stability (Plasma stability): < 1.0%

COC(=O)Cn1nc(-c2ccccc2)c2ccc(C)cc21 [Compound 49835872]
IC50 (C. albicans CaCi-2 [1]): 3.14 µM | IC50 (C. albicans CaCi-2 [2]; in the absence of fluconazole): > 26 µM | IC50 (C. albicans CaCi-8): 9.62 µM | ** CaCi-2 to anti-target fold selectivity [3]: 10 | IC50 [3]: 31.6 µM | Plasma Stability (Plasma stability): 6.5% | Plasma Protein Binding (Plasma protein binding): 98%

COC(=O)Cn1nc(-c2cccc(C)c2)c2ccccc21 [Compound 49835823]
IC50 (C. albicans CaCi-2 [1]): 0.65 µM | IC50 (C. albicans CaCi-2 [2]; in the absence of fluconazole): > 26 µM | IC50 (C. albicans CaCi-8): 1.34 µM | Plasma Stability (Plasma stability): 4.7% | Plasma Protein Binding (Plasma protein binding): 98%

COC(=O)CCn1nc(-c2ccccc2)c2ccccc21 [Compound 49835835]
IC50 (C. albicans CaCi-2 [2]; in the absence of fluconazole): > 26 µM | IC50 (C. albicans CaCi-8): > 26 µM | PBS Solubility (PBS solubility): < 1.0 µM | Plasma Stability (Plasma stability): 74% | Plasma Protein Binding (Plasma protein binding): > 99%

COC(=O)Cn1nc(-c2ccccc2)c2cc(F)ccc21 [Compound 49835889]
IC50 (C. albicans CaCi-2 [1]): 4.63 µM | IC50 (C. albicans CaCi-2 [2]; in the absence of fluconazole): > 26 µM | IC50 (C. albicans CaCi-8): 6.98 µM | Plasma Stability (Plasma stability): 1.0% | Plasma Protein Binding (Plasma protein binding): > 96%

COC(=O)Cn1nc(-c2cccc(F)c2)c2ccccc21 [Compound I-71]
IC50 (C. albicans CaCi-2 [2]; [4]): > 26 µM | IC50 ([3]; Mus musculus, NIH3T3): 12.9 µM | ** CaCi-2 to anti-target fold selectivity [3]: 9.1 | IC50 (yeast; target is yeast): 0.25 µM | Selectivity* (anti-target IC50)/(target IC50) (yeast; target yeast, anti-target human cytochrome): 80 | solubility (PBS solubility): < 1 µM | Plasma Stability (Plasma stability): < 1.0% | fraction unbound (Plasma protein binding; human, plasma): 0.04

c1ccc(-c2n[nH]c3ccccc23)cc1 [Compound 300385]
IC50 (C. albicans CaCi-2 [1]): 3 µM | IC50 (C. albicans CaCi-2 [2]; in the absence of fluconazole): > 26 µM | IC50 (C. albicans CaCi-8): > 26 µM | Plasma Stability (Plasma stability): > 99% | Plasma Protein Binding (Plasma protein binding): 98%

CN(C)C(=O)Cn1nc(-c2ccccc2)c2ccccc21 [Compound 49835882]
IC50 (C. albicans CaCi-2 [2]): > 26 µM | IC50 (C. albicans CaCi-8): > 26 µM | PBS Solubility (PBS solubility): 325.5 µM | Plasma Stability (Plasma stability): 98% | Plasma Protein Binding (Plasma protein binding): 98%

O=C(Cn1nc(-c2ccccc2)c2ccccc21)N1CCc2ccccc2C1 [Compound 20877557]
IC50 (C. albicans CaCi-2 [2]; in the absence of fluconazole): > 26 µM | IC50 (C. albicans CaCi-8): > 26 µM | PBS Solubility (PBS solubility): < 1.0 µM | Plasma Stability (Plasma stability): 97% | Plasma Protein Binding (Plasma protein binding): > 99%

COC(=O)Cn1nc(-c2ccc(C(F)(F)F)cc2)c2ccccc21 [Compound 49835854]
IC50 (C. albicans CaCi-2 [2]; in the absence of fluconazole): > 26 µM | IC50 (C. albicans CaCi-8): > 26 µM | IC50 [3]: 0.68 µM | Plasma Stability (Plasma stability): 17% | Plasma Protein Binding (Plasma protein binding): 97%

COC(=O)Cn1nc(-c2ccccc2)c2cc(C)ccc21 [Compound 49835874]
IC50 (C. albicans CaCi-2 [1]): 3.28 µM | IC50 (C. albicans CaCi-2 [2]; in the absence of fluconazole): > 26 µM | IC50 (C. albicans CaCi-8): 5.33 µM | ** CaCi-2 to anti-target fold selectivity [3]: 21 | IC50 [3]: 69.5 µM | Plasma Stability (Plasma stability): < 1.0% | Plasma Protein Binding (Plasma protein binding): 95%

COC(=O)Cn1nc(-c2ccccc2C)c2ccccc21 [Compound 49835865]
IC50 (C. albicans CaCi-2 [1]): 5.5 µM | IC50 (C. albicans CaCi-2 [2]; in the absence of fluconazole): > 26 µM | IC50 (C. albicans CaCi-8): 7.25 µM | Plasma Stability (Plasma stability): < 1.0% | Plasma Protein Binding (Plasma protein binding): < 1.0%

COC(=O)Cn1nc(-c2ccc(F)cc2)c2ccccc21 [Compound 49835876]
IC50 (C. albicans CaCi-2 [1]): 6.26 µM | IC50 (C. albicans CaCi-2 [2]; in the absence of fluconazole): > 26 µM | IC50 (C. albicans CaCi-8): 10.2 µM | Plasma Stability (Plasma stability): < 1.0% | Plasma Protein Binding (Plasma protein binding): 93%

O=C1OCCC1n1nc(-c2ccccc2)c2ccccc21 (centres unmarked) [Compound 49835834]
IC50 (C. albicans CaCi-2 [2]; in the absence of fluconazole): > 26 µM | IC50 (C. albicans CaCi-8): > 26 µM | PBS Solubility (PBS solubility): PBS Solubility: <1.0 μM Plasma Protein Binding: ND Plasma Stability: <1.0% Purity (UPLC): 65% | Plasma Stability (Plasma stability): PBS Solubility: <1.0 μM Plasma Protein Binding: ND Plasma Stability: <1.0% Purity (UPLC): 65%

COC(=O)Cn1ncc2ccccc21 [Compound 49835852]
IC50 [3]: 0.74 µM | Plasma Stability (Plasma stability): < 1.0% | Plasma Protein Binding (Plasma protein binding): < 1.0%

CCC(=O)Cn1nc(-c2ccccc2)c2ccccc21 [Compound 49835816]
IC50 (C. albicans CaCi-2 [2]): > 26 µM | IC50 (C. albicans CaCi-8): > 26 µM | PBS Solubility (PBS solubility): < 1.0 µM | Plasma Stability (Plasma stability): 98% | Plasma Protein Binding (Plasma protein binding): 99%
